Test results as given in patent publication US12226490B2, “Anti-ROR1 antibody conjugates, compositions comprising anti ROR1 antibody conjugates, and methods of making and using anti-ROR1 antibody conjugates preliminary class” (Sutro Biopharma, Inc., priority 2022, dated 2025).
Blank lines part the entries; values can stand above or below the molecule they belong to.

Tests used:
[1] = test system: ROR1-positive Ntera-2 cells co-cultured with PMBCS; assay: Ntera-2 / PBMC co-culture: target cell killing and monocyte activation (FACS); assay type: cell-based, human
Method: ROR1-positive Ntera-2 cells were co-cultured with PMBCS at E:T=[…] and treated with Conjugate 46 or exatecan for 3 days. Live target cell count and monocyte activation were measured by FACS. […] FIG. 21A and FIG. 21B are graphs showing the percent of live target cells and monocyte activation in Ntera-2 cells following treatment with Conjugate 46 or exatecan compared to the un-conjugated antibody and an isotype control of Conjugate 46. […] Unconjugated anti-ROR1 antibody or a non-targeted ADC had no activity. […] Viability and calreticulin surface expression were measured and presented as a percentage compared to untreated cells.

[2] = test system: ROR1 positive Ntera-2 cell; assay: In vitro cell killing of ROR1 ADCs, ROR1 positive cells (Cell Titer-Glo, 120 hours); assay type: cell-based, human; details: Table 13
From the text: (§1) Ntera-2, MDA-MB-231, MCF7, HCT116 and Mino cells were obtained from ATCC. HCT116-hRor1-D02 clone was generated by transfecting HCT116 cells with a plasmid containing human Ror1 cDNA sequence and selected for highest stable expression of hRor1 on the cell surface. MDA-MB-231, MCF7, HCT116 and HCT116-Ror1 cell were maintained in Ham's F-12 high glucose DMEM (50-50) (Cellgro-Mediatech; Manassas, VA) supplemented with 10% heat-inactivated fetal bovine serum (Hyclone; Thermo Scientific; Waltham, MA), 1% Penicillin/Streptomycin (Cellgro-Mediatech; Manassas, VA) and 2 mmol/L-glutamax (Life Technology; Carlsbad, CA). Mino cells were maintained in RPMI-1640 medium (Cellgro-Mediatech; Manassas, VA) supplemented with 20% heat-inactivated fetal bovine serum (Hyclone; Thermo Scientific; Waltham, MA), 1% Penicillin/Streptomycin (Cellgro-Mediatech; Manassas, VA) and 2 mmol/L-glutamax (Life Technology; Carlsbad, CA).
(§2) Anti-ROR1 antibody was conjugated to different linker-warheads described herein at different DARs and the cell killing activity of the ADCs were evaluated on ROR1 positive Ntera-2 cell and ROR1 negative MCF7 cells.
(§3) Ntera-2 or MCF7 cell at 625 cells/25 μL were seeded in a 384-well flat bottom white polystyrene plate one day before the assay start. ADCs were formulated at 2× starting concentration. Filter sterilized samples were serial diluted (1:3) under sterile conditions and added onto cells in triplicates. Plates were cultured at 37° C. in a CO2 incubator for 120 hours. […] Relative luminescence was measured on an ENVISION® plate reader (Perkin-Elmer; Waltham, MA). Relative luminescence readings were converted to % viability using untreated cells as controls. […]
(§4) To evaluate if the cell killing activity of anti-ROR1 ADCs is dependent on antibody binding to ROR1 expressed on cell surface, the same linker-warheads (LP3, LP4) were conjugated to an anti-GFP antibody and the cell killing of the anti-ROR1 and anti-GFP ADCs were evaluated in cell killing assays on ROR1 positive Ntera-2 cell and ROR1 negative MCF7 cells.

[3] = test system: ROR1-positive Ntera-2 cells; assay: Induction of immunogenic cell death markers (calreticulin by FACS, HMGB1 by ELISA); assay type: cell-based, human; details: 3 days treatment
Method: ROR1-positive Ntera-2 cells were treated with Conjugate 46 or exatecan for 3 days. Calreticulin on the cell surface was measured by FACS and HMGB1 in the cell culture medium were measured by ELISA. […] FIG. 20A and FIG. 20B illustrate calreticulin expression and HMGB1 release of Ntera-2 cells in the presence of Conjugate 46 or exatecan compared to the un-conjugated antibody and an isotype control of Conjugate 46.

ROR1 negative MCF7 cells = assay: In vitro cell killing of ROR1 ADCs, ROR1 negative cells (Cell Titer-Glo, 120 hours); assay type: cell-based, human; details: Table 13
From the text: as §1, §2, §3, §4

TNBC PDX tumors = assay: TNBC PDX models, single agent or combination with olaparib; assay type: in vivo, athymic nude Fox1^nu mice; details: CTG-0437, CTG-1017, and CTG-2055; olaparib p.o. 50 mg/kg qd×28
From the text: The activity of Conjugate 46 as a single agent or in combination with the PARP inhibitor olaparib was additionally assessed in TNBC PDX models. Briefly, PDX tumors, spanning varying levels of ROR1 expression and sensitivity to olaparib, were passaged in athymic nude Fox1^nu mice before being processed into tumor fragments for subcutaneous implantation into the hind flank of mice for study initiation. When tumors reached a volume of around 150-300 mm^3, the mice were randomized and enrolled into the study. Tumor-bearing mice were administered up to three weekly doses (qw×3) of Conjugate 46 i.v. at 5 mg/kg and up to twenty-eight daily doses (qd×28) of olaparib p.o. at 50 mg/kg.
Combination treatment with Conjugate 46 and olaparib (50 mg/kg, qd×28) is conducted using a 2 mg/kg, qw×3 dosing regimen for Conjugate 46. The combination therapy is assessed in six TNBC PDX models as described in Example 26.

[4] = biological target: T1, HCT116 cells overexpressing human ROR1 (HCT116-hRor1) (Homo sapiens, UniProt Q01973); assay: FACS cell binding, affinity maturation leads; details: Table 11 (SP34 light chain)
T1 construct: expressed in transfected cells; host or cells: HCT116
From the text: as §1
Variants with expression levels >250 nM were tested in a fluorescence-activated cell sorting (FACS) cell-binding assay. […]
A mix of ROR1 positive and negative cells was prepared as follows. […] Cells were then washed 2× with FACS buffer and fixed for 10 minutes in 200 μl PBS with 2% PFA prior to fluorescence detection. […] Mean Fluorescence Intensity of ROR1 antibody binding was analyzed using FlowJo® software (Tree Star, Inc.).

[5] = Differential scanning fluorimetry (protein thermal shift; TM1 Fc, TM2 Fab); assay type: physicochemical; details: melting temperature of the Fab domain; Table 11
Outline: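 Protein at 0.2-2 mg/mL, mixed 1:1 with diluted SYPRO Orange in PBS, heated 25 to 95 °C at about 1.5 °C/min with fluorescence read per 0.1 °C step, in quadruplicate. TM1 is the Fc (CH2) unfolding transition and TM2 the Fab transition.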

human ROR1-Fz = biological target: T2, human ROR1-Fz (Homo sapiens, UniProt Q01973); assay: Biacore off-rate and kinetic analysis, ROR1 frizzled domain; assay type: binding; details: Table 11 (SP34 light chain)
T2 construct: Frizzled (Fz, residues 165-305); HIS6 (C); purchased Acro Biosystems; host or cells: HEK293

[6] = biological target: T3, hROR1 (ROR1-extracellular domain) (Homo sapiens, UniProt Q01973); assay: Biacore off-rate and kinetic analysis, ROR1 extracellular domain; assay type: binding; details: Sample ROR1 ECD, SPR
T3 construct: the ROR1-extracellular domain (hROR1); purchased Acro Biosystems
Method: Anti-Fc polyclonal antibodies were immobilized onto a CM5 chip (GE Life Sciences) using amine coupling chemistry (from Amine Coupling Kit, GE Life Sciences). The immobilization steps were carried out at a flow rate of 25 μL/min in 1×HBS-EP+ buffer (GE Life Sciences; 10× Stock diluted before use). The sensor surfaces were activated for 7 min with a mixture of NHS (0.05 M) and EDC (0.2 M). The Anti-Fc antibodies were injected over all 4 flow cells at a concentration of 25 ug/ml in 10 mM sodium acetate, pH 4.5, for 7 min. Ethanolamine (1 M, pH 8.5) was injected for 7 min to block any remaining activated groups. […]
The data was fit with the Biacore T200 Evaluation software, using a 1-1 Langmuir binding model. KD (affinity, nM) was determined as a ratio of the kinetic rate constants calculated from the fits of the association and dissociation phases.
For anti-CD3-LC-containing IgGs that had detectable ROR1-binding in ELISA (1944-A07 and 1987-C05 variants), those antibodies were further tested for binding by surface plasmon resonance (SPR). Binding kinetics were assessed to the ROR1-frizzled domain (hROR1-Fz) or the ROR1-extracellular domain (hROR1) for 1944-A07 and 1987-C05 variants, respectively. […] KD (affinity, nM) was determined as a ratio of the kinetic rate constants calculated from the fits of the association and dissociation phases.

[7] = co-culture with PMBCS at E:T=10.1, 3 days

HCT 116-hROR1 Binding Bmax [4]: 15139 MFI
Biacore human ROR1-Fz ka (human ROR1-Fz): 185000 M⁻¹ s⁻¹
Biacore human ROR1-Fz kd (human ROR1-Fz): 0.000269 s⁻¹
B1: SRP2196-B07 (antibody, V domains shown)
VH: EVQLVESGGGLVQPGGSLRLSCAASGFNITGYHIHWVRQAPGEGLEWVGYISPNSGATYYADSVEGRFTISADTSKNTAYLQMHSLRAEDTAVYYCTRDSRRYVRGWDYWGQGTLVTVSS
VL: QAVVTQESALTTSPGETVTLTCRSSTGAVTTSNYANWVQEKPDHLFTGLIGGTNKRAPGVPARFSGSLIGDKAALTITGAQTEDEAIYFCALWYSNLWVFGGGTKLTVL
TM2 [5]: 69 °C

kd1 [6]: 0.000645 s⁻¹
ka1 ([6]; 1-1 Langmuir): 566000 M⁻¹ s⁻¹
B2: 1987-C05 HC w/hUCHT1 LC3: HC of lead antibody 1987-C05 co-expressed with LC "derived from anti-CD3 antibodies": hUCHT1-LC3 (antibody, V domains shown)
VH: EVQLVESGGGLVQPGGSLRLSCAASGFNISDYDIHWVRQAPGKGLEWVGGIDPDDGSTDYADSVKGRFTISADTSKNTAYLQMNSLRAEDTAVYYCARDYGVFDYWGQGTLVTVSS
VL: DIQMTQSPSTLSASVGDRVTITCRASQDIRNYLNWYQQKPGKAPKLLIYYTSRLHSGVPSRFSGSGSGTEYTLTISSLQPDDFATYYCQQGNTLPWTFGGGTKVEIK

Further lines, the molecule ahead of its results:

Molecule: CC[C@@]1(O)C(=O)OCc2c1cc1n(c2=O)Cc2c-1nc1cc(F)c(C)c3c1c2[C@@H](N)CC3 [exatecan]
cell killing of target cells (live target cell count) [1, 7]: induced potent cell killing of target cells
monocyte activation (CD86 expression) [1, 7]: potently induced monocyte activation
calreticulin on the cell surface ([1]; concomitant with reduced viability (FIG. 21C)): calreticulin could be detected on the cell surface
NTERA-2 Span [2]: 98%
markers for immunogenic cell death (calreticulin translocation to the cell surface and HMGB1 release) [3]: induced markers for immunogenic cell death
MCF-7 Span (ROR1 negative MCF7 cells): 91%

Molecule: O=C(c1cc(Cc2n[nH]c(=O)c3ccccc23)ccc1F)N1CCN(C(=O)C2CC2)CC1 [olaparib]
tumor growth suppression, single agent (TNBC PDX tumors): moderate tumor growth suppression
